In US6355799B1, “Substituted benzene compounds, process for their preparation, and herbicidal and defoliant compositions containing them” (ISK Americas Incorporated, priority 1997, dated 2002):

Key:
Type in all cases: in vivo
[1] = test system: field corn (Zea mays L., var. Dekalb 535, CORN); test: Post-emerge test, crop safety; conditions: phytotoxicity rating 0-100 (0 no damage, 100 complete death), 14 days after application
Procedure, shortened: (§1)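 Compounds in acetone were track-sprayed at 187 l/ha, 15–1000 g ai/ha, onto sandy loam pots. Pre-emerge seeds were sown one day before spraying, with surface watering afterwards. Post-emerge plants were at the 2–3 leaf stage and sprayed with 0.25% v/v non-ionic surfactant. Injury was rated 0–100 at 14 days.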

[2] = test system: upland rice (Oryza sp., var. Tebonnet, RICE); test: Post-emerge test, crop safety; conditions: phytotoxicity rating 0-100 (0 no damage, 100 complete death), 14 days after application
Procedure, shortened: as §1

[3] = test system: field corn (Zea mays L., var. Dekalb 535, CORN); test: Pre-emerge test, crop safety; conditions: pre-emerge, rated 14 days after application, 0 = no damage, 100 = complete death
Procedure, shortened: (§2)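 Fourteen days after spraying, crop and weed injury was graded visually from 0, no effect, to 100, every plant dead. Test substances were dissolved in acetone and applied at 15–1000 g ai/ha with a flat-fan nozzle. Application was either pre-emergence, one day after sowing, or post-emergence at the 2–3 leaf stage.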

[4] = test system: upland rice (Oryza sp., var. Tebonnet, RICE); test: Pre-emerge test, crop safety; conditions: pre-emerge, rated 14 days after application, 0 = no damage, 100 = complete death
Procedure, shortened: as §2

[5] = test system: sicklepod (Cassia obtusifolia, CASOB); test: Pre-emerge test, greenhouse herbicide activity screening; conditions: pre-emerge, rated 14 days after application, 0 = no damage, 100 = complete death
Procedure, shortened: as §1

[6] = test system: green foxtail (Setaria viridis, SETVI); test: as above; conditions: pre-emerge, rated 14 days after application, 0 = no damage, 100 = complete death
Procedure, shortened: as §1

[7] = test system: barnyardgrass (Echinochloa crus-galli, ECHCG); test: as above; conditions: pre-emerge, rated 14 days after application, 0 = no damage, 100 = complete death
Procedure, shortened: as §1

[8] = test system: common ragweed (Ambrosia artemisizfolia L., AMBEL); test: as above; conditions: pre-emerge, rated 14 days after application, 0 = no damage, 100 = complete death
Procedure, shortened: as §1

[9] = test system: johnsongrass (Sorghum halepense, SORHA); test: as above; conditions: pre-emerge, rated 14 days after application, 0 = no damage, 100 = complete death
Procedure, shortened: as §1

[10] = test system: velvetleaf (Abutilon theophrasti, ABUTH); test: as above; conditions: pre-emerge, rated 14 days after application, 0 = no damage, 100 = complete death
Procedure, shortened: as §1

[11] = test system: lambsquarters (Chenopodium album, CHEAL); test: as above; conditions: pre-emerge, rated 14 days after application, 0 = no damage, 100 = complete death
Procedure, shortened: as §1

[12] = test system: ivyleaf morningglory (Ipomoea hederacea, IPOHE); test: as above; conditions: pre-emerge, rated 14 days after application, 0 = no damage, 100 = complete death
Procedure, shortened: as §1

[13] = test system: large crabgrass (Digitaria sanguinalis, DIGSA); test: as above; conditions: pre-emerge, rated 14 days after application, 0 = no damage, 100 = complete death
Procedure, shortened: as §1

[14] = test system: sicklepod (Cassia obtusifolia, CASOB); test: Post-emerge test, greenhouse herbicide activity screening; conditions: phytotoxicity rating 0-100 (0 no damage, 100 complete death), 14 days after application
Procedure, shortened: (§3)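 Compounds in acetone were track-sprayed at 15-1000 g ai/ha (187 l/ha) on sandy loam pots: pre-emerge one day after seeding, post-emerge at 2-3 leaf stage with 0.25% v/v non-ionic surfactant. Phytotoxicity was rated 14 days later on a 0 (no damage) to 100 (complete death) scale.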

[15] = test system: green foxtail (Setaria viridis, SETVI); test: as above; conditions: phytotoxicity rating 0-100 (0 no damage, 100 complete death), 14 days after application
Procedure, shortened: as §3

[16] = test system: barnyardgrass (Echinochloa crus-galli, ECHCG); test: as above; conditions: phytotoxicity rating 0-100 (0 no damage, 100 complete death), 14 days after application
Procedure, shortened: as §3

[17] = test system: common ragweed (Ambrosia artemisizfolia L., AMBEL); test: as above; conditions: phytotoxicity rating 0-100 (0 no damage, 100 complete death), 14 days after application
Procedure, shortened: as §3

[18] = test system: johnsongrass (Sorghum halepense, SORHA); test: as above; conditions: phytotoxicity rating 0-100 (0 no damage, 100 complete death), 14 days after application
Procedure, shortened: as §3

[19] = test system: redroot pigweed (Amaranthus retroflexus, AMARE); test: as above; conditions: phytotoxicity rating 0-100 (0 no damage, 100 complete death), 14 days after application
Procedure, shortened: as §3

[20] = test system: velvetleaf (Abutilon theophrasti, ABUTH); test: as above; conditions: 63 g ai/ha; phytotoxicity rating 0-100 (0 no damage, 100 complete death), 14 days after application
Procedure, shortened: as §3

[21] = test system: lambsquarters (Chenopodium album, CHEAL); test: as above; conditions: phytotoxicity rating 0-100 (0 no damage, 100 complete death), 14 days after application
Procedure, shortened: as §3

[22] = test system: ivyleaf morningglory (Ipomoea hederacea, IPOHE); test: as above; conditions: phytotoxicity rating 0-100 (0 no damage, 100 complete death), 14 days after application
Procedure, shortened: as §3

[23] = test system: large crabgrass (Digitaria sanguinalis, DIGSA); test: as above; conditions: phytotoxicity rating 0-100 (0 no damage, 100 complete death), 14 days after application
Procedure, shortened: as §3

[24] = test system: redroot pigweed (Amaranthus retroflexus, AMARE); test: Pre-emerge test, greenhouse herbicide activity screening; conditions: pre-emerge, rated 14 days after application, 0 = no damage, 100 = complete death
Procedure, shortened: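 Plants grown in 10 cm pots of sandy loam mix received acetone-dissolved compounds through a moving flat-fan nozzle. Doses ranged from 15 to 1000 g ai/ha. Pre-emerge pots were seeded one day earlier, post-emerge pots 8–21 days earlier. Fourteen days on, each pot was graded 0–100 for damage.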

Question: COc1c(Cl)cc(F)c(-n2c(=O)cc(C(F)(F)F)n(C)c2=O)c1N1CCCC1 [Compound 1-32] was tested. Which “Post-emerge Herbicidal Activity CORN (crop damage)” value ([1]; 63 g ai/ha) did it give?
Answer: 0

Question: And the “Post-emerge Herbicidal Activity CORN (crop damage)” value ([1]; 250 g ai/ha)?
Answer: 0

Question: And the “Post-emerge Herbicidal Activity RICE (crop damage)” value ([2]; 63 g ai/ha)?
Answer: 0

Question: What about the “Post-emerge Herbicidal Activity RICE (crop damage)” value ([2]; 250 g ai/ha) of the same compound?
Answer: 0

Question: What about the “Pre-emerge crop damage CORN (phytotoxicity rating, scale 0-100)” value ([3]; 63 g ai/ha) of the same compound?
Answer: 0

Question: And the “Pre-emerge crop damage CORN (phytotoxicity rating, scale 0-100)” value ([3]; 250 g ai/ha)?
Answer: 0

Question: What about the “Pre-emerge crop damage RICE (phytotoxicity rating, scale 0-100)” value ([4]; 63 g ai/ha) of the same compound?
Answer: 20

Question: And the “Pre-emerge crop damage RICE (phytotoxicity rating, scale 0-100)” value ([4]; 250 g ai/ha)?
Answer: 40

Question: What about the “Pre-emerge Herbicidal Activity CASOB (phytotoxicity rating, scale 0-100)” value ([5]; 63 g ai/ha) of the same compound?
Answer: 40

Question: What about the “Pre-emerge Herbicidal Activity CASOB (phytotoxicity rating, scale 0-100)” value ([5]; 250 g ai/ha) of the same compound?
Answer: 40

Question: What about the “Pre-emerge Herbicidal Activity SETVI (phytotoxicity rating, scale 0-100)” value ([6]; 63 g ai/ha) of the same compound?
Answer: 0

Question: And the “Pre-emerge Herbicidal Activity SETVI (phytotoxicity rating, scale 0-100)” value ([6]; 250 g ai/ha)?
Answer: 100

Question: And the “Pre-emerge Herbicidal Activity ECHCG (phytotoxicity rating, scale 0-100)” value ([7]; 63 g ai/ha)?
Answer: 0

Question: And the “Pre-emerge Herbicidal Activity ECHCG (phytotoxicity rating, scale 0-100)” value ([7]; 250 g ai/ha)?
Answer: 95

Question: And the “Pre-emerge Herbicidal Activity AMBEL (phytotoxicity rating, scale 0-100)” value ([8]; 63 g ai/ha)?
Answer: 0

Question: And the “Pre-emerge Herbicidal Activity AMBEL (phytotoxicity rating, scale 0-100)” value ([8]; 250 g ai/ha)?
Answer: 50

Question: And the “Pre-emerge Herbicidal Activity SORHA (phytotoxicity rating, scale 0-100)” value ([9]; 63 g ai/ha)?
Answer: 0

Question: What about the “Pre-emerge Herbicidal Activity SORHA (phytotoxicity rating, scale 0-100)” value ([9]; 250 g ai/ha) of the same compound?
Answer: 30

Question: What about the “Pre-emerge Herbicidal Activity ABUTH (phytotoxicity rating, scale 0-100)” value ([10]; 63 g ai/ha) of the same compound?
Answer: 90

Question: And the “Pre-emerge Herbicidal Activity ABUTH (phytotoxicity rating, scale 0-100)” value ([10]; 250 g ai/ha)?
Answer: 100

Question: And the “Pre-emerge Herbicidal Activity CHEAL (phytotoxicity rating, scale 0-100)” value ([11]; 63 g ai/ha)?
Answer: 90

Question: What about the “Pre-emerge Herbicidal Activity CHEAL (phytotoxicity rating, scale 0-100)” value ([11]; 250 g ai/ha) of the same compound?
Answer: 100

Question: What about the “Pre-emerge Herbicidal Activity IPOHE (phytotoxicity rating, scale 0-100)” value ([12]; 63 g ai/ha) of the same compound?
Answer: 0

Question: What about the “Pre-emerge Herbicidal Activity IPOHE (phytotoxicity rating, scale 0-100)” value ([12]; 250 g ai/ha) of the same compound?
Answer: 50

Question: What about the “Pre-emerge Herbicidal Activity DIGSA (phytotoxicity rating, scale 0-100)” value ([13]; 63 g ai/ha) of the same compound?
Answer: 0

Question: What about the “Pre-emerge Herbicidal Activity DIGSA (phytotoxicity rating, scale 0-100)” value ([13]; 250 g ai/ha) of the same compound?
Answer: 100

Question: What about the “Post-emerge Herbicidal Activity CASOB” value ([14]; 63 g ai/ha) of the same compound?
Answer: 0

Question: What about the “Post-emerge Herbicidal Activity CASOB” value ([14]; 250 g ai/ha) of the same compound?
Answer: 0

Question: And the “Post-emerge Herbicidal Activity SETVI” value ([15]; 63 g ai/ha)?
Answer: 0

Question: And the “Post-emerge Herbicidal Activity SETVI” value ([15]; 250 g ai/ha)?
Answer: 0

Question: And the “Post-emerge Herbicidal Activity ECHCG” value ([16]; 63 g ai/ha)?
Answer: 0

Question: And the “Post-emerge Herbicidal Activity ECHCG” value ([16]; 250 g ai/ha)?
Answer: 0

Question: What about the “Post-emerge Herbicidal Activity AMBEL” value ([17]; 63 g ai/ha) of the same compound?
Answer: 0

Question: And the “Post-emerge Herbicidal Activity AMBEL” value ([17]; 250 g ai/ha)?
Answer: 30

Question: And the “Post-emerge Herbicidal Activity SORHA” value ([18]; 63 g ai/ha)?
Answer: 0

Question: And the “Post-emerge Herbicidal Activity SORHA” value ([18]; 250 g ai/ha)?
Answer: 0

Question: And the “Post-emerge Herbicidal Activity AMARE” value ([19]; 63 g ai/ha)?
Answer: 10

Question: And the “Post-emerge Herbicidal Activity AMARE” value ([19]; 250 g ai/ha)?
Answer: 30

Question: And the “Post-emerge Herbicidal Activity ABUTH” value [20]?
Answer: 30

Question: What about the “Post-emerge Herbicidal Activity CHEAL” value ([21]; 63 g ai/ha) of the same compound?
Answer: 0

Question: And the “Post-emerge Herbicidal Activity CHEAL” value ([21]; 250 g ai/ha)?
Answer: 60

Question: What about the “Post-emerge Herbicidal Activity IPOHE” value ([22]; 63 g ai/ha) of the same compound?
Answer: 0

Question: What about the “Post-emerge Herbicidal Activity IPOHE” value ([22]; 250 g ai/ha) of the same compound?
Answer: 70

Question: What about the “Post-emerge Herbicidal Activity DIGSA” value ([23]; 63 g ai/ha) of the same compound?
Answer: 0

Question: And the “Post-emerge Herbicidal Activity DIGSA” value ([23]; 250 g ai/ha)?
Answer: 0

Question: And the “Pre-emerge Herbicidal Activity AMARE (phytotoxicity rating, scale 0-100)” value ([24]; 63 g ai/ha)?
Answer: 0

Question: And the “Pre-emerge Herbicidal Activity AMARE (phytotoxicity rating, scale 0-100)” value ([24]; 250 g ai/ha)?
Answer: 100
